# ChEMBL document CHEMBL3272317, “Application of SCAP to drug design. 1. Prediction of octanol-water partition coefficients using solvent-dependent conformational analyses” (J Med Chem, 1976)
# Experiment: Octanol-water partition coefficient, log P of the compound
row,SMILES,logP
1,CCCc1ccccc1,3.68
2,CCCCCl [BUTYL CHLORIDE],2.39
3,Nc1ccccc1 [ANILINE],0.9
4,OC1CCCCC1 [CYCLOHEXANOL],1.23
5,CCC#N [PROPIONITRILE],0.16
6,CC(C)(C)CO,1.36
7,CCC(C)=O [BUTANONE],0.29
